Results reported in US20260325510A1, “COMBINATIONS COMPRISING AN ATR INHIBITOR AND A PARP INHIBITOR AND METHODS OF USE THEREOF” (Jazz Pharmaceuticals Therapeutics, Inc., priority 2023, published 2026).

Assays:
[1] = Baseline monotherapy tolerability, 4 weeks IV (complete blood count); format: in vivo, female athymic nude mice; settings: 60 mg/kg IV, three times weekly
Protocol: Maximum tolerated dose studies were conducted on healthy, 6-8 week-old female athymic nude mice (Jackson Laboratories). For baseline monotherapy tolerability, 60 mg/kg of niraparib both in free and liposomal form was IV administered to nude mice at a dosing schedule of every other day followed by a two-day holiday (i.e., three days per week) for 4-weeks (n=5 for each cohort). Free drug was supplied in hydroxybetacyclodextrin in HEPES Buffered Saline with 5% dextrose, pH adjusted to 7.4. Study mice were then sacrificed at 24-hours post final injection with endpoint blood collection by cardiac puncture. Complete blood count (CBC) was then conducted on a Vetscan HM5 hematology analyzer (Zoetis, New Jersey, USA).
This study was conducted over a 4-week period to better capture hematopoietic turnover. Athymic nude mice were selected due to the presence of normal levels of neutrophils, monocytes, and red blood cells on top of a reduced number of non-functional lymphocytes. The immunocompromised nature of athymic nude mice allowed for better comparative translation of dose sensitivity to fully immunocompromised mice (i.e. NSG) that are required for xenograft studies.

[2] = Hematology tolerability study; format: in vivo, female C57BL/6 mice; settings: free ATR inhibitor in combination with free niraparib
Protocol: In order to study the effects of hematology tolerability under different dosing regimens, 8-12 week old, female C57BL/6 mice were used. Body weight was measured qd×5, then biweekly to the end of the study. Animals were weighed and monitored for survival and in-life observations were collected at the time of weight measurement. […] Mice were monitored individually to endpoint which was 18 days. Full volume blood was collected by terminal cardiac puncture under isoflurane anesthesia and analyzed for reticulocyte count/number, red blood cell count/number, hemoglobin, hematocrit, platelet count/number, white blood cell count/number, neutrophil count/number, monocyte count/number and lymphocyte count/number.

SMILES | hematological toxicity [1] | hematological toxicity [2]
NC(=O)c1cccc2cn(-c3ccc([C@@H]4CCCNC4)cc3)nc12 [FREE-NIRB, niraparib] | significant hematological toxicity in the form of macrocytic anemia | 
CNCc1ccc(-c2cc(-c3nc(-c4ccc(S(=O)(=O)C(C)C)cc4)cnc3N)on2)cc1 [berzosertib] |  | severe reticulocytopenia and leukopenia
